Our source for the IC50 and DC50 values is patent publication US20240383908A1, “SYNTHESIS AND APPLICATION OF PHOSPHATASE DEGRADER” (HINOVA PHARMACEUTICALS INC., priority 2021, published 2024).

Test [1] relates to MIA Paca-2. In words: Inhibition of cell proliferation, MIA Paca-2 (CCK-8). The class given is cell-based. The note with it: Homo sapiens, MIA Paca-2 cells, read-out: Inhibition activity on the proliferation of different cell lines MIA Paca-2 (IC50). The procedure: (1) MV-411 cells were cultured in the cell culture medium, and then well-growing cells were selected and inoculated in a 96-well plate at 80 μL/well, with 2×10^4 cells/well. The plate was incubated overnight in a 5% CO2 cell incubator at 37° C.
(2) 10 mM storage solution of each drug was prepared using dimethylsulfoxide (DMSO). The stock solution was diluted in a ratio of 1:3 with DMSO before use, and then the solution was serially diluted in a ratio of 1:3, to obtain 9 gradient concentrations. Each concentration was further diluted with the medium in a ratio of 1:200 (to ensure that the DMSO concentration in the culture system was 0.1%). Two wells were set for each concentration. 20 μL of each compound solution was added to the cell culture well (with a final concentration of 10 μM, 3.3 μM, 1.1 μM . . . ). The plate was gently shaken and mixed. Additionally, 3 negative control wells (only containing cells) and 3 blank control wells (only containing the medium) were included (6 wells were each added with 20 μL of DMSO diluted with the medium in a ratio of 1:200).
(1) After 5 days of cultivation, 10 μL of CCK-8 was added to each well, and then the plate was further cultured for 3 h at 37° C. in a 5% CO2 cell incubator.
(2) The absorbance (OD value) was measured at 450 nm with a multifunctional microplate reader. (3) The data were analyzed using the Dose-response-inhibition equation in GraphPad Prism8 software to obtain the IC50 value.
Using a similar method, the IC50 value (nM) for the inhibitory activity of the compound according to the present invention against different cell lines was obtained, and the results are shown in Table 3 (++++: IC50>5 μM; +++: 1 μM<IC50<5 μM; ++: IC50<1 μM).

In test [2] the target is T1, SHP2 protein (Homo sapiens, UniProt Q06124).
T1 sequence (Q06124 1-593): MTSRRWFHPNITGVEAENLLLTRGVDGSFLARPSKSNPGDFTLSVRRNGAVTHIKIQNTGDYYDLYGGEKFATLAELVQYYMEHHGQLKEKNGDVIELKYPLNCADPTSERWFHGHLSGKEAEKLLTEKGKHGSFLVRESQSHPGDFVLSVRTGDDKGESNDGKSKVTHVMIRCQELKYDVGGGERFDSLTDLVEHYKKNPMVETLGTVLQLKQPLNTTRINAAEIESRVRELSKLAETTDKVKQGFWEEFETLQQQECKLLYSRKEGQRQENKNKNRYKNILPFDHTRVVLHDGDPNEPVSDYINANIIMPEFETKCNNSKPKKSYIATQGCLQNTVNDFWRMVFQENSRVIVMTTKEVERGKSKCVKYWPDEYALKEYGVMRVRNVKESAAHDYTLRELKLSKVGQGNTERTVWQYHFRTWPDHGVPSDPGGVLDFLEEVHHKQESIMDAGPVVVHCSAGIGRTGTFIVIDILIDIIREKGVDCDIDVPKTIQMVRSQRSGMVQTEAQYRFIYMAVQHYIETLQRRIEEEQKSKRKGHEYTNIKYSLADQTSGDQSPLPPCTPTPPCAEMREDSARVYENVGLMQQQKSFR
Kind of test: Degradation activity on SHP2 protein in NCI-H358 cells (Western blot, DC50). The class given is cell-based. The arrangement: endogenous in cells. To be noted: read-out: Degradation activity for differenct cell lines NCI-H358 (DC50). In short, it runs like this:
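DC50 is the concentration degrading 50% of SHP2 relative to DMSO control. It was derived by fitting Western blot band densitometry (anti-SHP2, GAPDH reference) from cells exposed 24 h to 0.1–100 nM compound in 0.1% DMSO.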

As a reminder, the DC50 is the concentration giving 50% degradation. As for `CC1(N)CCN(c2cnc(Sc3cccc(NC(=O)CCCCCCCCN4CCN(c5ccc(C(=O)NCc6ccc7c(c6)CN(C6CCC(=O)NC6=O)C7=O)nn5)CC4)c3)cn2)CC1` (stereo not drawn) [Compound 63], the IC50 in test [1] lay in the range of 1 to 5 µM. The DC50 in test [2] was under 0.1 µM.
On the same counts, the results for `CC1(N)CCN(c2cnc(Sc3cccc(NC(=O)CCCCCCCCN4C5CCC4CN(c4ccc(C(=O)NCc6ccc7c(c6)CN(C6CCC(=O)NC6=O)C7=O)nn4)C5)c3)cn2)CC1` (stereo not drawn) [Compound 119] are 1 to 5 µM and under 0.1 µM.
Consider `CCC1(N)CCN(c2cnc(Sc3cccc(NC(=O)CCCCCCN4CC5(CCN(c6ccc(C(=O)NCc7ccc8c(c7)CN(C7CCC(=O)NC7=O)C8=O)nn6)C5)C4)c3)cn2)CC1` (stereo not drawn) [Compound 161], for which the IC50 in test [1] was 1 to 5 µM. Besides, the DC50 in test [2] is 0.1 to 1 µM.
For `NC1(CO)CCN(c2cnc(Sc3cccc(NC(=O)CCCCCCN4CC5(CCN(c6ccc(C(=O)NCc7ccc8c(c7)CN(C7CCC(=O)NC7=O)C8=O)nn6)C5)C4)c3)cn2)CC1` (stereo not drawn) [Compound 168] the same measures were 1 to 5 µM and 0.1 to 1 µM.
On the same counts, the results for `CC1(N)CCN(c2cnc(Sc3cccc(NC(=O)CCCCCCCCN4CCN(c5ccc(C(=O)NCc6ccc7c(c6)CN(C6CCC(=O)NC6=O)C7=O)nn5)CC4C(F)(F)F)c3)cn2)CC1` (stereo not drawn) [Compound 174] are 1 to 5 µM and under 0.1 µM.
For `Cc1ncsc1-c1ccc([C@H](C)NC(=O)[C@@H]2C[C@@H](O)CN2C(=O)[C@@H](NC(=O)CCCCCCCCN2CCN(C(=O)CCC(=O)Nc3cccc(Sc4ncc(N5CCC(C)(N)CC5)nc4N)c3Cl)CC2)C(C)(C)C)cc1` [Compound 999] the same measures were 1 to 5 µM and under 0.1 µM.
